# Data: patent US20070160691A1, “Pharmaceutical composition for treating and preventing cancer comprising cinnamoni cortex extract and zizyphi fructus extract” (KOREA RESEARCH INSTITUTE OF BIOSCIENCE AND BIOTECH, priority 2003, published 2007)
# Assays:
# [1] = system: PARP (poly(ADP-ribose) polymerase) in MDA-MB-231 breast cancer cells; assay: PARP cleavage by Western blotting; assay type: cell-based; settings: MDA-MB-231 cells, 10 μM and 30 μM HCA, 48 hrs, compared to DMSO; FIG. 2
# Procedure: (§1) MDA-MB-231 breast cancer cells and SW620 colon cancer cells were seeded onto 100-mm culture dishes at densities of 1×10^6 and 2×10^6 cells, respectively. After 18 hrs, the cells were treated with 10 μM and 30 μM of HCA and further cultured for 48 hrs.
# (§2) Then, to analyze PARP (poly(ADP-ribose) polymerase) cleavage by the HCA treatment, the cells were lysed using RIPA buffer (50 mM Tris-HCl, pH 7.4, 150 mM NaCl, 5 mM EDTA, 1% NP-40, 1 mM sodium vanadate, 0.5% sodium deoxycholate, and 0.05% sodium deoxysulfate). The cell lysates were centrifuged at 13,000 rpm and the supernatants were recovered. In the supernatants, protein concentrations were determined using a Bradford reagent (Bio-Rad Protein Assay, USA). Protein samples of 30 μg were separated on a 7.5% SDS-PAGE (SDS-polyacrylamide gel electrophoresis) gel. Proteins were then electro-transferred onto a PVDF membrane. The blot was blocked using 5% skim milk in TBST (50 mM Tris-HCl, pH 7.6, 150 mM NaCl, 0.1% Tween 20). Intracellular PARP was detected using a PARP-specific antibody (Cell signaling Technology, USA), a HRP (horse radish peroxidase)-conjugated secondary antibody, and a chemiluminescence POD reagent (Roche, Germany).
# [2] = system: MDA-MB-231 breast cancer cells; assay: Cancer cell migration assay in Boyden chamber; assay type: cell-based; settings: 6 hrs, FIG. 3
# Procedure: Cultured MDA-MB-231 breast cancer cells were detached from culture dishes using a trypsin/EDTA solution (Gifco, USA), neutralized with trypsin inhibitor (0.5 mg/ml, Sigma, USA), and washed twice with culture medium. The cells were then counted using a hematocytometer. Cell migration was assayed using a Boyden chamber. HCA was added to a lower compartment of the Boyden chamber through holes with concentrations of 0 μM, 1 μM, 5 μM and 10 μM. After the lower compartment of the Boyden chamber was covered with a polycarbonate membrane (8 μm pore, Neuro Probe, Inc, USA), an upper compartment of the Boyden chamber was assembled with the lower compartment, and […] MDA-MB-231 cells were inoculated in the upper compartment through holes. After the Boyden chamber was incubated in an incubator for 6 hrs, the membrane was immersed in methanol to fix the cells. Then, the membrane was air-dried, stained with a 10% Girkmsa staining solution (Sigma, USA)for 1 hr, and destained with water for 10 sec. Herein, after non-migratedcells (an upper side of the membrane) were removed using a swab, migrated cells (a lower side of the membrane) were counted under a microscope.
# [3] = system: MDA-MB-231 breast cancer cells; assay: DNA fragmentation (apoptosis induction), agarose gel electrophoresis; assay type: cell-based; settings: MDA-MB-231 cells, 10 μM and 30 μM HCA, 48 hrs, compared to DMSO; FIG. 1
# Procedure: (§3) MDA-MB-231 breast cancer cells and SW620 colon cancer cells were seeded onto 100-mm culture dishes at densities of 1×10^6 and 2×10^6 cells, respectively. After 18 hrs, the cells were treated with 10 μM and 30 μM of 2′-hydroxycinnamaldehyde(HCA) and further cultured for 48 hrs.
# (§4) Then, to analyze DNA cleavage by the HCA treatment, the cells were lysed using RIPA buffer (50 mM Tris-HCl, pH 7.4, 150 mM NaCl, 5 mM EDTA, 1% NP-40, 1 mM sodium vanadate, 0.5% sodium deoxycholate, and 0.05% sodium deoxysulfate). The cell lysates were centrifuged at 13,000 rpm. The supernatants were subjected to phenol extraction to remove proteins, and the nucleic acid layers were recovered. Potassium acetate was added to each nucleic acid layer in a final concentration of 50 mM, and an equal volume of isopropyl alcohol was added thereto to precipitate nucleic acids. The precipitated nucleic acids were washed with 80% ethanol and dried. The dried nucleic acids were dissolved in 30 μl of TE buffer, and treated with Dnase-free RNase at 37° C. for 1 hr to remove RNA.
# (§5) The resulting DNA samples were electrophoresed on a 1.5% agarose gel to investigate DNA fragmentation by HCA.
# [4] = system: SW620 colon cancer cells; assay: as above; assay type: cell-based, human; settings: 10 μM and 30 μM HCA, 48 hrs, compared to DMSO, FIG. 1
# Procedure: as §3, §4, §5
# [5] = system: PARP (poly(ADP-ribose) polymerase) in SW620 colon cancer cells; assay: PARP cleavage by Western blotting; assay type: cell-based, human; settings: 10 μM and 30 μM HCA, 48 hrs, compared to DMSO, FIG. 2
# Procedure: as §1, §2
smiles,measurement,setting,value
"O=C/C=C/c1ccccc1O [HCA, 2′-hydroxycinnamaldehyde]",PARP cleavage,[1],a decrease in normal full-length PARP (116 kDa) and an increase in cleaved PARP (89 kDa)
same,inhibition at 30 µM,"[2]; Homo sapiens, MDA-MB-231, at 30 μM",> 50%
same,inhibition of cell migration,[2]; at 5 μM,inhibited cell migration
same,DNA fragmentation by HCA,[3],fragmentation of chromosonal DNA into uniform DNA fragments
same,DNA fragmentation by HCA,[4],fragmentation of chromosonal DNA into uniform DNA fragments
same,PARP cleavage,[5],a decrease in normal full-length PARP (116 kDa) and an increase in cleaved PARP (89 kDa)
